Experimental data published in patent US20260125346A1, “Isoquinolinone Derivatives and 4H-Quinolizinone Derivatives and Pharmaceutical Compositions Thereof for the Treatment of Disease” (BeOne Medicines I GmbH, priority 2023, published 2026).

Tests used:
Assay type in all cases: cell-based
WT cell line SK-BR-3 [1] = assay: Phospho-AKT (Ser473) Inhibition Assay (HTRF), SK-BR-3; conditions: Homo sapiens; SK-BR-3, 1 hour treatment; read-out: p-AKT Inhibition assay (S473) IC50 SK-BR-3
Description: (§1) The SK-BR-3 (ATCC, HTB-30) cell line was obtained from the American Type Culture Collection. Cells were maintained in McCoy' 5A medium (Gibco, REF #16600108) supplemented with 10% Fetal Bovine Serum. Cultures were maintained in a humidified incubator at 37° C. under 5% CO2/95% air.
Phospho-AKT Inhibition Assay. HTRF Phospho-AKT (Ser473) detection kit (Cisbio, REF #64AKSPEH) was used in phosphor-AKT inhibition assay. For compound screening, PI3Kα H1047R mutated cell line T-47D and WT cell line SK-BR-3 cells were seeded at a density of 3×10^4 cells per well in 96 well plate (Costar, REF #3599) in 95 μL of assay medium (MEM medium (Gibco, REF #12561-056) with 1×NEAA (Gibco, REF #11140-050), 1 mM sodium pyruvate (Gibco, REF #11360-070), and 1 g/ml human insulin (Topscience, REF #T8221)), overnight. Compounds dissolved in 10 mM stock solutions in DMSO were serially diluted 1:3 in DMSO to generate an 11-point dilution series and plated using an INTEGRA ASSIST PLUS pipetting robot. A 20× intermediate compound dilution plate in RPMI1640 medium (200 M starting compound concentration in 2% DMSO) was then prepared. Five μL of intermediate serially diluted compounds were added to the cell plate to final concentrations ranging from […] to 0.1 nM in 0.1% DMSO. 0.1% DMSO alone was used to establish the maximum signal and GDC0077 at final concentration of 10 μM was used as a reference compound for minimum signal. After 1 hour treatment, removed medium and added 50 μL of supplemented lysis buffer (1×) immediately. Incubated for at least 30 minutes at room temperature under shaking. Transferred 16 μL of cell lysate from the 96-well cell-culture plate to a 384-white detection plate (PerkinElmer, Optiplate 384, 6007299). Added 4 μL of premixed antibody solutions prepared in the detection buffer. Incubated 4 hours at room temperature in dark. The plates were read on PHERAstar FSX Microplate reader (BMG LABTECH, Inc.) using standard HTRF settings.
Relative IC50 values were determined using luminescence units by calculating percent inhibition with respect to the in-plate “MIN” (GDC0077 reference control) and “MAX” (DMSO) controls. The data were analyzed using a 4-parameter nonlinear logistic equation (four-parameter logistic concentration-response curve): Y=bottom+[(top−bottom)/1+(X/IC50) slope] • where Y=% inhibition, X=concentration of inhibitor, bottom=minimum value of y attained by curve-fit, top=maximum value of y attained by curve-fit and slope=steepness of curve at the IC50.

WT cell line SK-BR-3 [2] = assay: Cell Proliferation Assay (CellTiter-Glo), SK-BR-3; conditions: Homo sapiens, 72 h; SK-BR-3, 3 days treatment
Description: as §1
(§2) Cell Proliferation Assay. PI3Kα H1047R mutated cell line T-47D cells and WT cell line SK-BR-3 were seeded at a density of 3×10^3 cells per well in 96 well plate (Xinyou Biotechnology, 062096) in 95 μL of culture medium, overnight. Compounds dissolved in 10 mM stock solutions in DMSO were serially diluted 1:3 in DMSO to generate a 9-point dilution series and plated using an INTEGRA ASSIST Plus pipetting robot. A 20× intermediate compound dilution plate in RPMI1640 medium (200 M starting compound concentration in 2% DMSO) was then prepared. Five μL of intermediate serially diluted compounds were added to the cell plate to final concentrations ranging from […] to 1 nM in 0.1% DMSO. 0.1% DMSO alone was used to establish the maximum signal and medium without cells was for minimum signal. After 3 days treatment, equilibrated the plate and its contents at room temperature for approximately 30 minutes. Added 30 μL CellTiter-Glo® Reagent (Promega, REF #G7571) to each well. Then mixed contents for 5 min on plate shaker to induce cell lysis. Incubated at room temperature for 10 minutes to stabilize luminescent signal. The plates were read on PHERAstar FSX Microplate reader using standard luminescence settings.
(§3) Relative IC50 values were determined using luminescence units by calculating percent inhibition with respect to the in-plate “MIN” (medium only) and “MAX” (0.1% DMSO) controls. The data were analyzed using a 4-parameter nonlinear logistic equation (four-parameter logistic concentration-response curve): Y=bottom+[(top−bottom)/1+(X/IC50) slope] • where Y=% inhibition, X=concentration of inhibitor, bottom=minimum value of y attained by curve-fit, top=maximum value of y attained by curve-fit and slope=steepness of curve at the IC50.

[3] = system: PI3Kα H1047R mutated cell line T-47D cells; assay: Cell Proliferation Assay (CellTiter-Glo), T-47D; conditions: for IC50: Homo sapiens, T47D, 72 h, T-47D, 3 days treatment; for Selectivity: SK-BR-3/T-47D (cell proliferation): cell proliferation IC50 ratio
Description: Cell Culture Maintenance. The T-47D (ATCC, HTB-133) cell line was obtained from the American Type Culture Collection. Cells were maintained in RPMI1640 medium (Gibco, REF #22400105) supplemented with 10% Fetal Bovine Serum (Gibco, REF #10091148). Cultures were maintained in a humidified incubator at 37° C. under 5% CO2/95% air.
as §2, §3

SMILES	IC50 (WT cell line SK-BR-3 [1])	IC50 (WT cell line SK-BR-3 [2])	IC50 [3]	Selectivity: SK-BR-3/T-47D (cell proliferation) [3]
Cc1cc(C(C)Nc2ccccc2C(=O)O)c2cc(-c3ccc(CN4CCOCC4)nc3)n(C)c(=O)c2c1 (stereo not shown) [Example 78, 2-((1-(2,7-dimethyl-3-(6-(morpholinomethyl)pyridin-3-yl)-1-oxo-1,2-dihydroisoquinolin-5-yl)ethyl)amino)benzoic acid]	> 10 µM	> 10 µM	0.329 µM	>30
Cc1cc(C(C)Nc2ccccc2C(=O)O)c2cc(C#Cc3cnn(-c4ccccc4)c3)n(C)c(=O)c2c1 (stereo not shown) [Example 94, 2-((1-(2,7-dimethyl-1-oxo-3-((1-phenyl-1H-pyrazol-4-yl)ethynyl)-1,2-dihydroisoquinolin-5-yl)ethyl)amino)benzoic acid]	> 10 µM	> 10 µM	> 10 µM	
Cc1cc(C(C)Nc2ccccc2C(=O)O)c2cc(-c3cnc(C(C)(C)O)nc3)n(C)c(=O)c2c1 (stereo not shown) [Example 66, 2-((1-(3-(2-(2-hydroxypropan-2-yl)pyrimidin-5-yl)-2,7-dimethyl-1-oxo-1,2-dihydroisoquinolin-5-yl)ethyl)amino)benzoic acid]	> 10 µM	> 10 µM	0.908 µM	>11
Cc1cc([C@@H](C)Nc2ccccc2C(=O)O)c2cc(-c3ccc(F)cc3)n(CC#N)c(=O)c2c1 [Example 64, (R)-2-((1-(2-(cyanomethyl)-3-(4-fluorophenyl)-7-methyl-1-oxo-1,2-dihydroisoquinolin-5-yl)ethyl)amino)benzoic acid]	> 10 µM	> 10 µM	0.07 µM	>143
Cc1cc([C@H](C)Nc2ccccc2C(=O)O)c2cc(-c3ccc(C(C)(C)O)nc3)n(C)c(=O)c2c1 [Example 57, (S)-2-((1-(3-(6-(2-hydroxypropan-2-yl)pyridin-3-yl)-2,7-dimethyl-1-oxo-1,2-dihydroisoquinolin-5-yl)ethyl)amino)benzoic acid]	> 10 µM	> 10 µM	> 10 µM	
Cc1cc([C@H](C)Nc2ccccc2C(=O)O)c2cc(-c3ccc(F)cc3)n(C)c(=O)c2c1 [Example 35, (S)-2-((1-(3-(4-fluorophenyl)-2,7-dimethyl-1-oxo-1,2-dihydroisoquinolin-5-yl)ethyl)amino)benzoic acid]	> 10 µM	> 10 µM	> 10 µM	
Cc1cc(C(C)Nc2ccccc2C(=O)O)c2cc(-c3ccc(N4CCCC4)cc3)n(C)c(=O)c2c1 (stereo not shown) [Example 84, 2-((1-(2,7-dimethyl-1-oxo-3-(4-(pyrrolidin-1-yl)phenyl)-1,2-dihydroisoquinolin-5-yl)ethyl)amino)benzoic acid]	3.12 µM	> 10 µM	0.465 µM	>22
Cc1cc(C(C)Nc2ccccc2C(=O)O)c2cc(-c3cccc(C(F)(F)F)c3)n(C)c(=O)c2c1 (stereo not shown) [Example 50, 2-((1-(2,7-dimethyl-1-oxo-3-(3-(trifluoromethyl)phenyl)-1,2-dihydroisoquinolin-5-yl)ethyl)amino)benzoic acid]	6.85 µM	> 10 µM	3.23 µM	>3.1
Cc1cc(C(C)Nc2ccccc2C(=O)O)c2cc(C#CC3(O)CCCC3)n(C)c(=O)c2c1 (stereo not shown) [Example 89, 2-((1-(3-((1-hydroxycyclopentyl)ethynyl)-2,7-dimethyl-1-oxo-1,2-dihydroisoquinolin-5-yl)ethyl)amino)benzoic acid]	6.84 µM	> 10 µM	0.938 µM	>11
Cc1cc(C(C)Nc2ccccc2C(=O)O)c2cc(C#Cc3ccn(C)n3)n(C)c(=O)c2c1 (stereo not shown) [Example 88, 2-((1-(2,7-dimethyl-3-((1-methyl-1H-pyrazol-3-yl)ethynyl)-1-oxo-1,2-dihydroisoquinolin-5-yl)ethyl)amino)benzoic acid]	1.94 µM	> 10 µM	0.695 µM	>14
Cc1cc(C(C)Nc2ccccc2C(=O)O)c2cc(-c3ccc(F)cc3)n(C3CCOC3)c(=O)c2c1 (stereo not shown) [Example 69, 2-((1-(3-(4-fluorophenyl)-7-methyl-1-oxo-2-(tetrahydrofuran-3-yl)-1,2-dihydroisoquinolin-5-yl)ethyl)amino)benzoic acid]	> 10 µM	> 10 µM	1.69 µM	>5.9
Cc1cc([C@@H](C)Nc2ccccc2C(=O)O)c2cc(-c3ccc(C(C)(C)O)nc3)n(C)c(=O)c2c1 [Example 56, (R)-2-((1-(3-(6-(2-hydroxypropan-2-yl)pyridin-3-yl)-2,7-dimethyl-1-oxo-1,2-dihydroisoquinolin-5-yl)ethyl)amino)benzoic acid]	> 10 µM	> 10 µM	0.0963 µM	>104
Cc1cc(C(C)Nc2ccccc2C(=O)O)c2cc(-c3ccc4c(c3)C(=O)N(C)C4)n(C)c(=O)c2c1 (stereo not shown) [Example 75, 2-((1-(2,7-dimethyl-3-(2-methyl-3-oxoisoindolin-5-yl)-1-oxo-1,2-dihydroisoquinolin-5-yl)ethyl)amino)benzoic acid]	> 10 µM	> 10 µM	0.27 µM	>37
Cc1cc(C(C)Nc2ccccc2C(=O)O)c2cc(-c3ccc(F)cc3)n(C3COC3)c(=O)c2c1 (stereo not shown) [Example 95, 2-((1-(3-(4-fluorophenyl)-7-methyl-2-(oxetan-3-yl)-1-oxo-1,2-dihydroisoquinolin-5-yl)ethyl)amino)benzoic acid]	1.36 µM	> 10 µM	0.284 µM	>35
COc1ncc(-c2cc3c(C(C)Nc4ccccc4C(=O)O)cc(C)cc3c(=O)n2C)cc1F (stereo not shown) [Example 58, 2-((1-(3-(5-fluoro-6-methoxypyridin-3-yl)-2,7-dimethyl-1-oxo-1,2-dihydroisoquinolin-5-yl)ethyl)amino)benzoic acid]	3.16 µM	> 10 µM	0.351 µM	>29
Cc1cc([C@H](C)Nc2ccccc2C(=O)O)c2cc(-c3ccccc3)n(C)c(=O)c2c1 [Example 31, (S)-2-((1-(2,7-dimethyl-1-oxo-3-phenyl-1,2-dihydroisoquinolin-5-yl)ethyl)amino)benzoic acid]	> 10 µM	> 10 µM	> 10 µM	
Cc1cc(C(C)Nc2ccccc2C(=O)O)c2cc(-c3ccccc3F)n(C)c(=O)c2c1 (stereo not shown) [Example 6, 2-((1-(3-(2-fluorophenyl)-2,7-dimethyl-1-oxo-1,2-dihydroisoquinolin-5-yl)ethyl)amino)benzoic acid]	3.21 µM	> 10 µM	0.327 µM	>31
